Tests used:
speedwell = assay: Test D postemergence; assay type: in vivo, Veronica persica; conditions: Veronica persica, post-emergence
Procedure, shortened: (§1)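 Values are 0–100 visual control ratings (0 none, 100 complete) given 7–21 days after application. Soil for preemergence was silt loam; postemergence plants stood 2–18 cm tall.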

chamomile = assay: Test D postemergence; assay type: in vivo, Matricaria inodora; conditions: Tripleurospermum inodorum, post-emergence
Procedure, shortened: as §1

bromegrass, downy = assay: Test D postemergence; assay type: in vivo, Bromus tectorum; conditions: Bromus tectorum, post-emergence, Postemergence, scale 0 to 100 (0 no effect, 100 complete control), read-out: Plant response rating, Bromegrass, Downy
Procedure, shortened: as §1

Brazilian crabgrass = assay: Test E postemergence; assay type: in vivo, Digitaria horizontalis; conditions: Digitaria horizontalis, post-emergence, read-out: Plant response rating, Crabgrass, Brazil
Procedure, shortened: (§2)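 Response was scored visually on a 0-100 scale (100 = complete control) versus controls after 14 to 21 days in the greenhouse. Test chemicals, formulated with surfactant in a non-phytotoxic solvent mixture, had been applied preemergence to seeds in silt loam soil or postemergence to 1- to 4-leaf plants in potting medium.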

field poppy = assay: Test D preemergence; assay type: in vivo, Papaver rhoeas; conditions: Papaver rhoeas, pre-emergence
Procedure, shortened: as §1

spring barley = assay: Test D postemergence; assay type: in vivo, Hordeum vulgare; conditions: Hordeum vulgare, post-emergence, Postemergence, scale 0 to 100 (0 no effect, 100 complete control), read-out: Plant response rating, Barley, Spring
Procedure, shortened: as §1

winter barley = assay: Test D postemergence; assay type: in vivo, Hordeum vulgare; conditions: Hordeum vulgare, post-emergence, Postemergence, scale 0 to 100 (0 no effect, 100 complete control), read-out: Plant response rating, Barley, Winter
Procedure, shortened: as §1

field bindweed = assay: Test E postemergence; assay type: in vivo, Convolvulus arvensis; conditions: Convolvulus arvensis, post-emergence, read-out: Plant response rating, Field Bindweed
Procedure, shortened: as §2

wild mustard = assay: Test D preemergence; assay type: in vivo, Sinapis arvensis; conditions: Brassica, pre-emergence
Procedure, shortened: as §1

oilseed rape = assay: Test D postemergence; assay type: in vivo, Brassica napus; conditions: Brassica napus, post-emergence
Procedure, shortened: as §1

wild buckwheat = assay: Test D preemergence; assay type: in vivo, Polygonum convolvulus; conditions: Fallopia convolvulus, pre-emergence
Procedure, shortened: as §1

windgrass = assay: Test D preemergence; assay type: in vivo, Apera spica-venti; conditions: Apera spica-venti, pre-emergence
Procedure, shortened: as §1

wild poinsettia = assay: Test E postemergence; assay type: in vivo, Euphorbia heterophylla; conditions: Euphorbia heterophylla, post-emergence, read-out: Plant response rating, Poinsettia, Wild
Text: Seeds of plant species selected from corn (Zea mays), soybean (Glycine max), velvetleaf (Abutilon theophrasti), lambsquarters (Chenopodium album), wild poinsettia (Euphorbia heterophylla), palmer pigweed (Amaranthus palmeri), waterhemp (common waterhemp, Amaranthus rudis), surinam grass (Brachiaria decumbens), large (Lg) crabgrass (Digitaria sanguinalis), Brazilian crabgrass (Digitaria horizontalis), fall panicum (Panicum dichotomiflorum), giant foxtail (Setaria faberii), green foxtail (Setaria viridis), goosegrass (Eleusine indica), johnsongrass (Sorghum halepense), ragweed (common ragweed, Ambrosia elatior), barnyardgrass (Echinochloa crus-galli), sandbur (southern sandbur, Cenchrus echinatus), arrowleaf sida (Sida rhombifolia), Italian ryegrass (Lolium multiflorum), dayflower (Virginia (VA) dayflower, Commelina virginica), field bindweed (Convolvulus arvensis), morningglory (Ipomoea coccinea), nightshade (eastern black nightshade, Solanum ptycanthum), kochia (Kochia scoparia), yellow nutsedge (Cyperus esculentus), cocklebur (common cocklebur, Xanthium strumarium), smartweed (ladysthumb smartweed, and hairy beggarticks (Bidens pilosa), were planted into a silt loam soil and treated preemergence with test chemicals formulated in a non-phytotoxic solvent mixture which included a surfactant.
At the same time, plants from these crop and weed species and also horseweed (Canada horseweed, Conyza canadensis), waterhemp_RES1, (ALS & Triazine resistant common waterhemp, Amaranthus rudis), and waterhemp_RES2, (ALS & HPPD resistant common waterhemp, Amaranthus rudis) were planted in pots containing Redi-Earth® planting medium (Scotts Company, 14111 Scottslawn Road, Marysville, Ohio 43041) comprising spaghnum peat moss, vermiculite, wetting agent and starter nutrients were treated with postemergence applications of test chemicals formulated in the same manner. Plants ranged in height from 2 to 18 cm for postemergence treatments (1- to 4-leaf stage). Treated plants and controls were maintained in a greenhouse for 14 to 21 days, after which time all species were compared to controls and visually evaluated. Plant response ratings, summarized in Table E, are based on a scale of 0 to 100 where 0 is no effect and 100 is complete control. A dash (-) response means no test result.

[1] = Postemergence, 31 g ai/ha, scale 0 to 100
[2] = Postemergence, 62 g ai/ha, scale 0 to 100
[3] = Postemergence, 125 g ai/ha, scale 0 to 100
[4] = postemergence, 8 g ai/ha, scale 0 to 100, 0 no effect, 100 complete control
[5] = postemergence, 16 g ai/ha, scale 0 to 100, 0 no effect, 100 complete control

Clc1cnc(Oc2ccccc2-n2cc(Br)cn2)nc1 [Compound 7, 2-[2-(4-bromo-1H-pyrazol-1-yl)phenoxy]-5-chloropyrimidine]
90%: pest or weed control at 125 g/ha (wild mustard; 125 g ai/ha, scale 0-100, read-out: Plant response rating, Mustard, Wild) | pest or weed control at 250 g/ha (wild buckwheat; 250 g ai/ha, scale 0-100, read-out: Plant response rating, Buckwheat, Wild)
80%: pest or weed control at 62 g/ha (wild mustard; 62 g ai/ha, scale 0-100, read-out: Plant response rating, Mustard, Wild) | plant injury at 31 g/ha (oilseed rape; 31 g ai/ha, scale 0 to 100 (0 no effect, 100 complete control), read-out: Plant response rating, Oilseed Rape) | pest or weed control at 125 g/ha (wild buckwheat; 125 g ai/ha, scale 0-100, read-out: Plant response rating, Buckwheat, Wild)
60%: pest or weed control at 125 g/ha (field poppy; 125 g ai/ha, scale 0-100, read-out: Plant response rating, Field Poppy) | pest or weed control at 62 g/ha (wild poinsettia; [2]) | pest or weed control at 125 g/ha (wild poinsettia; [3])
75%: plant injury at 16 g/ha (oilseed rape; 16 g ai/ha, scale 0-100, read-out: Plant response rating, Oilseed Rape) | pest or weed control at 62 g/ha (wild buckwheat; 62 g ai/ha, scale 0-100, read-out: Plant response rating, Buckwheat, Wild)
15%: pest or weed control at 8 g/ha (field bindweed; [4])
20%: pest or weed control at 62 g/ha (Brazilian crabgrass; [2]) | pest or weed control at 16 g/ha (field bindweed; [5]) | pest or weed control at 16 g/ha (wild mustard; 16 g ai/ha, scale 0 (no effect) to 100 (complete control), read-out: Plant response rating, Mustard, Wild) | pest or weed control at 31 g/ha (wild mustard; 31 g ai/ha, scale 0-100, read-out: Plant response rating, Mustard, Wild)
50%: pest or weed control at 62 g/ha (field bindweed; [2])
95%: plant injury at 62 g/ha (oilseed rape; 62 g ai/ha, scale 0 to 100 (0 no effect, 100 complete control), read-out: Plant response rating, Oilseed Rape)
100%: pest or weed control at 62 g/ha (speedwell; 62 g ai/ha, scale 0 to 100 (0 no effect, 100 complete control), read-out: Plant response rating, Speedwell) | pest or weed control at 125 g/ha (speedwell; 125 g ai/ha, scale 0 to 100 (0 no effect, 100 complete control), read-out: Plant response rating, Speedwell) | pest or weed control at 250 g/ha (speedwell; 250 g ai/ha, scale 0 to 100 (0 no effect, 100 complete control), read-out: Plant response rating, Speedwell) | pest or weed control at 250 g/ha (field poppy; 250 g ai/ha, scale 0-100, read-out: Plant response rating, Field Poppy) | pest or weed control at 250 g/ha (wild mustard; 250 g ai/ha, scale 0-100, read-out: Plant response rating, Mustard, Wild) | plant injury at 125 g/ha (oilseed rape; 125 g ai/ha, scale 0 to 100 (0 no effect, 100 complete control), read-out: Plant response rating, Oilseed Rape) | plant injury at 250 g/ha (oilseed rape; 250 g ai/ha, scale 0 to 100 (0 no effect, 100 complete control), read-out: Plant response rating, Oilseed Rape)
10%: pest or weed control at 31 g/ha (Brazilian crabgrass; [1])
0%: pest or weed control at 16 g/ha (chamomile; 16 g ai/ha, scale 0-100, read-out: Plant response rating, Chamomile) | pest or weed control at 31 g/ha (chamomile; 31 g ai/ha, scale 0 to 100 (0 no effect, 100 complete control), read-out: Plant response rating, Chamomile) | pest or weed control at 62 g/ha (chamomile; 62 g ai/ha, scale 0 to 100 (0 no effect, 100 complete control), read-out: Plant response rating, Chamomile) | pest or weed control at 125 g/ha (chamomile; 125 g ai/ha, scale 0 to 100 (0 no effect, 100 complete control), read-out: Plant response rating, Chamomile) | pest or weed control at 250 g/ha (chamomile; 250 g ai/ha, scale 0 to 100 (0 no effect, 100 complete control), read-out: Plant response rating, Chamomile) | pest or weed control at 16 g/ha (bromegrass, downy; 16 g ai/ha) | pest or weed control at 31 g/ha (bromegrass, downy; 31 g ai/ha) | pest or weed control at 62 g/ha (bromegrass, downy; 62 g ai/ha) | pest or weed control at 8 g/ha (Brazilian crabgrass; [4]) | pest or weed control at 16 g/ha (Brazilian crabgrass; [5]) | pest or weed control at 16 g/ha (field poppy; 16 g ai/ha, scale 0 (no effect) to 100 (complete control), read-out: Plant response rating, Field Poppy) | pest or weed control at 31 g/ha (field poppy; 31 g ai/ha, scale 0-100, read-out: Plant response rating, Field Poppy) | plant injury at 16 g/ha (spring barley; 16 g ai/ha) | plant injury at 31 g/ha (spring barley; 31 g ai/ha) | plant injury at 62 g/ha (spring barley; 62 g ai/ha) | plant injury at 16 g/ha (winter barley; 16 g ai/ha) | plant injury at 31 g/ha (winter barley; 31 g ai/ha) | plant injury at 62 g/ha (winter barley; 62 g ai/ha) | plant injury at 125 g/ha (winter barley; 125 g ai/ha) | plant injury at 250 g/ha (winter barley; 250 g ai/ha) | pest or weed control at 16 g/ha (wild buckwheat; 16 g ai/ha, scale 0 (no effect) to 100 (complete control), read-out: Plant response rating, Buckwheat, Wild) | pest or weed control at 31 g/ha (wild buckwheat; 31 g ai/ha, scale 0-100, read-out: Plant response rating, Buckwheat, Wild) | pest or weed control at 16 g/ha (windgrass; 16 g ai/ha, scale 0 (no effect) to 100 (complete control), read-out: Plant response rating, Windgrass) | pest or weed control at 31 g/ha (windgrass; 31 g ai/ha, scale 0 (no effect) to 100 (complete control), read-out: Plant response rating, Windgrass) | pest or weed control at 62 g/ha (windgrass; 62 g ai/ha, scale 0-100, read-out: Plant response rating, Windgrass) | pest or weed control at 125 g/ha (windgrass; 125 g ai/ha, scale 0-100, read-out: Plant response rating, Windgrass) | pest or weed control at 8 g/ha (wild poinsettia; [4])
30%: pest or weed control at 16 g/ha (speedwell; 16 g ai/ha, scale 0-100, read-out: Plant response rating, Speedwell) | pest or weed control at 125 g/ha (Brazilian crabgrass; [3]) | pest or weed control at 62 g/ha (field poppy; 62 g ai/ha, scale 0-100, read-out: Plant response rating, Field Poppy) | pest or weed control at 31 g/ha (field bindweed; [1]) | pest or weed control at 250 g/ha (windgrass; 250 g ai/ha, scale 0-100, read-out: Plant response rating, Windgrass) | pest or weed control at 31 g/ha (wild poinsettia; [1]) | pest or weed control at 16 g/ha (wild poinsettia; [5])
70%: pest or weed control at 31 g/ha (speedwell; 31 g ai/ha, scale 0 to 100 (0 no effect, 100 complete control), read-out: Plant response rating, Speedwell) | pest or weed control at 125 g/ha (field bindweed; [3])
5%: pest or weed control at 125 g/ha (bromegrass, downy; 125 g ai/ha) | pest or weed control at 250 g/ha (bromegrass, downy; 250 g ai/ha) | plant injury at 125 g/ha (spring barley; 125 g ai/ha) | plant injury at 250 g/ha (spring barley; 250 g ai/ha)

Source: patent publication US9695155B2, “Herbicidal substituted pyrimidinyloxy benzene compounds” (E. I. DU PONT DE NEMOURS AND COMPANY, priority 2013, dated 2017)
